Literature values in patent publication US20090148519A1, “PULSED-RELEASE PREPARATION HAVING IMPROVED DISINTEGRATION PROPERTIES IN VIVO” (priority 2005, published 2009).

Structure (SMILES)	half-life at pH 7
COc1ccnc(C[S+]([O-])c2nc3cc(OC(F)F)ccc3[nH]2)c1OC (centres unmarked) [pantoprazole]	39 hours
COCCCOc1ccnc(C[S+]([O-])c2nc3ccccc3[nH]2)c1C (centres unmarked) [rabeprazole]	30 minutes
